The values that follow are results of earlier work, collected in patent US20130089611A1, “RASAGILINE CITRAMIDE” (TEVA PHARMACEUTICAL INDUSTRIES, LTD., priority 2011, published 2013).

For this data set the following is noted: in vivo.

For the compound `C#CCN[C@@H]1CCc2ccccc21` [rasagiline, R(+)-N-propargyl-1-aminoindan], the absolute bioavailability result is recorded as “about 36%”.
